Test results taken from ChEMBL document CHEMBL1201862, “PubChem BioAssay data set” (2004).
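Protocol summary: plate cells (96-well), add compound at 5 concentrations, incubate 48 h, interpolate endpoints linearly. GI50 = concentration required for 50% inhibition of growth.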 Calls of active or inactive are those of the source. Rule as the data show it: active = GI50 up to about 1.1 µM and inactive = higher.

Columns and labels:
Experiment in all cases: DTP human tumour cell line panel, 48 h
HL-60 = system: HL-60
MDA-MB-435 = system: MDA-MB-435
OVCAR-4 = system: OVCAR-4
UACC-62 = system: UACC-62
MOLT-4 = system: MOLT-4
NCI-H522 = system: NCI-H522
ACHN = system: ACHN
U-251 = system: U-251
A549 = system: A549
SNB-19 = system: SNB-19
UO-31 = system: UO-31
MDA-MB-231 = system: MDA-MB-231
Hs-578T = system: Hs-578T
KM12 = system: KM12
A498 = system: A498
SR = system: SR
MCF7 = system: MCF7
BT-549 = system: BT-549
NCI-H460 = system: NCI-H460
SK-MEL-28 = system: SK-MEL-28
HT-29 = system: HT-29
CCRF-CEM = system: CCRF-CEM
PC-3 = system: PC-3
M14 = system: M14
TK-10 = system: TK-10
SF-295 = system: SF-295
HCT-116 = system: HCT-116
HOP-92 = system: HOP-92
UACC-257 = system: UACC-257
HCT-15 = system: HCT-15
RXF 393 = system: RXF 393
HOP-62 = system: HOP-62
SNB-75 = system: SNB-75
SW-620 = system: SW-620
IGROV-1 = system: IGROV-1
NCI-H226 = system: NCI-H226
786-0 = system: 786-0
OVCAR-5 = system: OVCAR-5
Malme-3M = system: Malme-3M
SK-MEL-2 = system: SK-MEL-2
OVCAR-8 = system: OVCAR-8
NCI-H23 = system: NCI-H23
SN12C = system: SN12C
EKVX = system: EKVX
OVCAR-3 = system: OVCAR-3
DU-145 = system: DU-145
K562 = system: K562
RPMI-8226 = system: RPMI-8226
SK-OV-3 = system: SK-OV-3
MDA-N = system: MDA-N
SF-539 = system: SF-539
SK-MEL-5 = system: SK-MEL-5
HCC 2998 = system: HCC 2998
COLO 205 = system: COLO 205
LOX IMVI = system: LOX IMVI
SF-268 = system: SF-268
NCI/ADR-RES = system: NCI/ADR-RES
CAKI-1 = system: CAKI-1

COc1ccc(/C=N/CCC/N=C/c2ccc(OC)cc2O)c(O)c1
GI50 (HL-60): 39.9 µM (inactive) | GI50 (MDA-MB-435): 46.1 µM (inactive) | GI50 (OVCAR-4): 36.8 µM (inactive) | GI50 (UACC-62): 27 µM (inactive) | GI50 (MOLT-4): 49.1 µM (inactive) | GI50 (NCI-H522): > 100 µM (inactive) | GI50 (ACHN): 48.6 µM (inactive) | GI50 (U-251): 40.6 µM (inactive) | GI50 (A549): > 100 µM (inactive) | GI50 (SNB-19): 47 µM (inactive) | GI50 (UO-31): 46 µM (inactive) | GI50 (MDA-MB-231): 38.7 µM (inactive) | GI50 (Hs-578T): 22 µM (inactive) | GI50 (KM12): 47.4 µM (inactive) | GI50 (A498): > 100 µM (inactive) | GI50 (SR): 54.6 µM (inactive) | GI50 (MCF7): 55.7 µM (inactive) | GI50 (BT-549): 48.9 µM (inactive) | GI50 (NCI-H460): > 100 µM (inactive) | GI50 (SK-MEL-28): 41 µM (inactive) | GI50 (HT-29): 97.3 µM (inactive) | GI50 (CCRF-CEM): 29.6 µM (inactive) | GI50 (PC-3): 42 µM (inactive) | GI50 (M14): 75.3 µM (inactive) | GI50 (TK-10): > 100 µM (inactive) | GI50 (SF-295): 17.7 µM (inactive) | GI50 (HCT-116): 71.9 µM (inactive) | GI50 (HOP-92): 17.6 µM (inactive) | GI50 (UACC-257): 36.6 µM (inactive) | GI50 (HCT-15): 37.5 µM | GI50 (RXF 393): > 100 µM (inactive) | GI50 (HOP-62): > 100 µM (inactive) | GI50 (SNB-75): 13.9 µM (inactive) | GI50 (SW-620): 57.9 µM (inactive) | GI50 (IGROV-1): 43.4 µM (inactive) | GI50 (NCI-H226): 16.7 µM (inactive) | GI50 (786-0): 76.6 µM (inactive) | GI50 (OVCAR-5): 64.4 µM (inactive) | GI50 (Malme-3M): 23.8 µM (inactive) | GI50 (SK-MEL-2): 34.8 µM (inactive) | GI50 (OVCAR-8): 35.6 µM (inactive) | GI50 (NCI-H23): > 100 µM (inactive) | GI50 (SN12C): 26.1 µM (inactive) | GI50 (EKVX): 29.3 µM (inactive) | GI50 (OVCAR-3): 16 µM (inactive) | GI50 (DU-145): 37.8 µM (inactive) | GI50 (K562): 69 µM (inactive) | GI50 (RPMI-8226): 38.3 µM (inactive)

C=C1CC=CC(C)(C)C1C/C=C(\C)C(O)CBr (stereo not drawn)
GI50 (HL-60): 32.4 µM (inactive) | GI50 (MDA-MB-435): 39.9 µM (inactive) | GI50 (OVCAR-4): 76 µM (inactive) | GI50 (SK-OV-3): > 100 µM (inactive) | GI50 (UACC-62): 53.7 µM (inactive) | GI50 (MOLT-4): 21.9 µM (inactive) | GI50 (NCI-H522): 4.2 µM (inactive) | GI50 (ACHN): 53.7 µM (inactive) | GI50 (U-251): 30.1 µM (inactive) | GI50 (A549): 74.3 µM (inactive) | GI50 (SNB-19): > 100 µM (inactive) | GI50 (UO-31): 35.7 µM (inactive) | GI50 (MDA-MB-231): > 100 µM (inactive) | GI50 (Hs-578T): > 100 µM (inactive) | GI50 (MDA-N): 42.6 µM (inactive) | GI50 (KM12): 77.1 µM (inactive) | GI50 (A498): > 100 µM (inactive) | GI50 (SR): 28 µM (inactive) | GI50 (MCF7): 36.2 µM (inactive) | GI50 (BT-549): 97.3 µM (inactive) | GI50 (NCI-H460): 95.7 µM (inactive) | GI50 (SK-MEL-28): > 100 µM (inactive) | GI50 (HT-29): 51.8 µM (inactive) | GI50 (CCRF-CEM): 47.8 µM (inactive) | GI50 (PC-3): 47.6 µM (inactive) | GI50 (M14): 82.6 µM (inactive) | GI50 (TK-10): 89.9 µM (inactive) | GI50 (SF-295): > 100 µM (inactive) | GI50 (HCT-116): 18.7 µM (inactive) | GI50 (HOP-92): 30.9 µM (inactive) | GI50 (SF-539): 29.9 µM (inactive) | GI50 (SK-MEL-5): 62.8 µM (inactive) | GI50 (UACC-257): 54.7 µM (inactive) | GI50 (HCT-15): 51.1 µM | GI50 (RXF 393): 26.7 µM (inactive) | GI50 (HOP-62): > 100 µM (inactive) | GI50 (SW-620): 33.1 µM (inactive) | GI50 (IGROV-1): 19.7 µM (inactive) | GI50 (NCI-H226): 37.5 µM (inactive) | GI50 (786-0): 28.6 µM (inactive) | GI50 (OVCAR-5): > 100 µM (inactive) | GI50 (SK-MEL-2): > 100 µM (inactive) | GI50 (HCC 2998): 87.9 µM (inactive) | GI50 (OVCAR-8): 29.4 µM (inactive) | GI50 (COLO 205): 39 µM (inactive) | GI50 (NCI-H23): > 100 µM (inactive) | GI50 (SN12C): > 100 µM (inactive) | GI50 (LOX IMVI): 19.1 µM (inactive) | GI50 (EKVX): > 100 µM (inactive) | GI50 (DU-145): 45.4 µM (inactive) | GI50 (SF-268): > 100 µM (inactive) | GI50 (NCI/ADR-RES): 19.2 µM (inactive) | GI50 (K562): 67.8 µM (inactive) | GI50 (RPMI-8226): 25.4 µM (inactive) | GI50 (CAKI-1): 23.2 µM (inactive)
